# Data reported in patent EP2292587A1, “PHARMACEUTICAL COMPOSITION FOR INHIBITING THE TRANSCRIPTION FACTOR INDUCIBLE BY HYPOXIA, MODULATORS OF PATHOLOGICAL PROCESSES OF ANGIOGENESIS, ONCOGENESIS, INFLAMMATION, APOPTOSIS, AND CELLULAR THERAPY” (Fundacion De La Comunidad Valenciana Centro De …, priority 2008, dated 2009).
# Legend:
# HIF-1α = test: Western blot of HIF-1alpha in dental pulp stem cells; format: cell-based, human; settings: 0.5 µM, physical hypoxia
# Text: The culture medium used was Low-Glucose DMEM supplemented with 10% fetal bovine serum. The human dental pulp mesenchymal stem line [Gronthos S, et al., "Postnatal human dental pulp stem cells (DPSCs) in vitro and in vivo" Proc Natl Acad Sci U S A, 2000 Dec 5; 97(25):13625-30.; Gronthos S et al.,." Stem cell properties of human dental pulp stem cells" J Dent Res, 2002 Aug; 81(8):531-5], obtained from human third molars from adults (19-29 years of age), was provided by the Cardioregeneration Dept. of the CIPF. The cells were seeded at a density of 2000 cells/cm^2, and when they reached a 90% confluence they were subcultured again by means of trypsinization.
# The dental pulp cells were seeded at 2000 cells/cm^2 in 21 cm^2 plates. […]
# ATR = test: activation kinetics of ATR (Western blot), HCT116/p53-/-; format: cell-based, human; settings: 0.5 µM, after 1 hour
# Text: To determine the degree of involvement of p53 in the possible effects caused by FM19G11, a HCT116 colon cancer cell line with expression of p53 and the same HCT116 line in which p53 was inactivated by homologous recombination were used (Bunz, F, Dutriaux, A, Lengauer, C, Waldman, T, Zhou, S, Brown, JP et al., (1998) Requirement for p53 and p21 to sustain G2 arrest after DNA damage. Science 282: 1497-501; Bunz, F, Hwang, PM, Torrance, C, Waldman, T, Zhang, Y, Dillehay, L et al., (1999) Disruption of p53 in human cancer cells alters the responses to therapeutic agents. J Clin Invest 104: 263-9.). The HCT116/p53^+/+ and HCT116/p53^-/- cells were exposed to FM19G11 (0.5 µM) at different times, the phosphorylation (activation) pattern of the ATR protein and of p53 which can be phosphorylated by ATR (Tibbetts, RS, Brumbaugh, KM, Williams, JM, Sarkaria, JN, Cliby, WA, Shieh, SY et al., (1999) A role for ATR in the DNA damage-induced phosphorylation of p53. Genes Dev 13: 152-7.), in p53-proficient HCT116 cells, as well as ATR in p53-deficient cells being analyzed (Figure 23). […] This quick activation of ATR coincides with that of p53 in HCT116/p53^+/+ cells after 1 hour of treatment with FM19G11 (0.5 µM), but the activation of p53 remains virtually on the expression of cells without drug, for the different times analyzed.
# JUNB = test: selectivity luciferase assay, Hek 293-CRE-LUC; format: cell-based; settings: 0-1 µM, 6 hours
# Protocol: The selectivity assays with the active compound FM19G11 were performed in white 96-well plates using the recombinant strains Hek 293-TRE-LUC and Hek 293-CRE-LUC which represent the transcriptional activity of transcription factors of the AP-1 complex. The luciferase assay for measuring transcriptional activity was performed using the kit Bright-Glo™ Luciferase Assay System (Promega, Inc., Madison, WI), following the instructions supplied by the manufacturer and the Hek 293-TRE-LUC and Hek 293-CRE-LUC lines contain the response elements of transcription factors of the AP-1 complex, specifically of c-FOS and JUNB, respectively. The Hek 293-TRE-LUC and Hek 293-CRE-LUC lines were provided by Dr. Rosa Farrás.
# epSPCs [1] = test: proliferation (ATP, CellTiter-Glo) and neurosphere formation of epSPCs; format: cell-based, rat; settings: for rates of proliferation (ATP): 500 nM
# Protocol: The accumulation of ATP, a metabolite directly related to the increase of metabolic activity and therefore with the proliferative activity, was determined with the commercial CellTiter-Glo® luminescent cell viability kit (Promega, Madison, WI).
# HCT116/p53+/+ = test: clonicity assay, HCT116/p53+/+; format: cell-based; settings: Homo sapiens, HCT-116; stimulated 72 hours, colonies counted after 10 days; read-out: survival IC50
# Protocol: Clonicity assays were conducted to determine the toxicity of FM19G11 in p53-proficient (HT29 and HCT116/p53^+/+) and p53-deficient (HCT116/p53^-/-) tumor cells. Once the HT-29, HCT116/p53^+/+ and HCT116/p53^-/- cells were adhered to the culture plate, they were stimulated with increasing concentrations of FM19G11 (0.5, 1, 5, 10, 20, 50 µM) for 72 hours. After 10 days of stimulation, the number of colonies formed in the plates of treated and untreated cells was determined.
# Results of the clonicity assays of HT29 human colon cancer cells, HCT116 cells treated with FM19G11 were monitored up to 10 after the treatment (Figure 28). The IC50 was determined by extrapolating the percentage with the concentration. FM19G11 was used at concentrations: 0.5, 1, 5, 10, 50, 100, 200 µM
# epSPCs [2] = test: differentiation of epSPCs into oligodendrocytes (immunocytochemistry); format: cell-based, rat; settings: 500 nM, 1% O2
# Text: The hypoxic condition blocks stem cell differentiation, and it is well acknowledged that this process is due to the activity of the HIF proteins. The exposure of ependymal stem cells to a low concentration of oxygen (1% O2) prevents the progress of differentiation aimed at the oligodendrocyte glial strain, clearly shown by both the morphological characteristics of the culture and by the low expression of typical markers of this cell strain (NG2, RIP, 04).
# The analysis of the expression of the cell markers Rip, NG2 and 04 in the presence or absence of FM19G11 under normoxic and/or hypoxic conditions was carried out by immunocytochemical techniques (Figure 15). After fixing the cell culture with paraformaldehyde (4%), it was permeabilized with Triton (0.05%) for 10 minutes, and after blocking non-specific bindings with fetal bovine serum (1%), it was incubated with the corresponding antibodies (acquired from Chemicon, USA). Secondary antibodies conjugated with different fluorochromes, rhodamine in rabbit IgG and fluorescein in mouse IgG, reveal the specific labeling of the primary antibodies. DAPI (Sigma Aldrich Co, UK) was used for the counterstaining of the nuclei.
smiles,measurement,setting,value
"Cc1ccc(C(=O)COC(=O)c2cccc(NC(=O)c3ccc([N+](=O)[O-])cc3[N+](=O)[O-])c2)cc1 [FM19G11, 2-oxo-2-(p-tolyl)ethyl 3-((2,4-dinitro)benzamido)benzoate]",expression of HIF-1α,HIF-1α,inhibited
same,phosphorylation of ATR,ATR,quick increase
same,transcriptional levels of Hek 293-CRE-LUC,JUNB,not affected in any case
same,rates of proliferation (ATP),"epSPCs [1]; 48 hours, ~20% O2",increases the rates of proliferation
same,rates of proliferation (ATP),epSPCs [1]; hypoxic conditions (1% O2),not reproduced
same,formation of neurospheres,epSPCs [1]; normoxic conditions (20% O2),favors the formation of neurospheres
same,IC50,HCT116/p53+/+,3.5 µM
same,"expression levels of the oligodendrocyte markers (NG2, RIP, 04) and phenotype",epSPCs [2],recovers the expression levels
